Test results: doi:10.1101/871186v1 (bioRxiv, 2019)

Experiments:
[1] = tested on: in vitro bovine BBB model (primary bovine brain capillary endothelial cells supported by primary rat glial cells); assay: In vitro BBB model transcytosis assay of MTf fragments and peptides; type: in vitro ADME
[2] = tested on: neurons (NeuN), astrocytes (GFAP), microglia (TMEM), lysosomes (LAMP1), early endosomes (EEA1); type: in vivo; conditions: mouse brain sections after IV Cy5-MTfp, 3D confocal
[3] = Tissue distribution of intact MTfp by LCMS; type: in vivo, mouse (CD1)

Sequence: DSSHAFTLDELR [MTfp]
- Abluminal vs. Total ([1]; T = 120, abluminal compared to initial concentration): 1.90%
- Abluminal vs. Luminal ([1]; T = 120, measure of transcytosis efficiency): 2.41%
- MTFp found in the early endosomes ([2]; EEA1 marker): approximately 20%
- MTFp found in the lysosomes ([2]; LAMP1 marker): 40%
- initial rate of transport, kidney ([3]; from 30-minute concentration): 9.9 nM/min
- initial rate of transport, liver ([3]; from 30-minute concentration): 7.3 nM/min
- initial rate of transport into the brain ([3]; slope of time vs concentration, 0 and 30-minute time points, protocol of Bickel): ~2 nM/min
